Test results as given in patent US20250340557A1, “PYRIMIDINE DERIVATIVE” (ASKA PHARMACEUTICAL CO., LTD., priority 2022, published 2025).
pIC50: −log10 of the molar value.

Biological target: T1, human mPGES-1 (Homo sapiens, UniProt O14684)
T1 construct: made in house; host or cells: COS-1 cells (transient transfection; microsomal fraction used as enzyme)
T1 sequence (O14684 1-152): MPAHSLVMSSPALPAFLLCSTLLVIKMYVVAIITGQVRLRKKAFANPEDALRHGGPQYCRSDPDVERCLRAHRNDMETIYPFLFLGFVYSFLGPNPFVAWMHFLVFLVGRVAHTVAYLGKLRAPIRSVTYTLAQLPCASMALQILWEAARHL
Test: Test for mPGES-1 inhibitory activity (microsomal enzyme, PGE2 EIA)
Format: biochemical
Settings: microsomes from COS-1 cells transfected with human mPGES-1 cDNA; substrate PGH2 1 μM; 4° C., 4 minutes; PGE2 measured by EIA; read-out: h mPGES1 IC50
Outline: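 Enzyme source was microsomes from COS-1 cells transiently expressing human mPGES-1, in sodium phosphate pH 7.2 with 2.5 mM GSH, 1 mM EDTA and 2% DMSO final. After a 15 min preincubation with compound at 4 °C, 1 μM PGH2 (final) reacted for 4 min at 4 °C.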

SMILES	pIC50
Cc1cc(=O)[nH]c(-c2c(C(F)(F)F)ccc(CNC(=O)C3CCN(c4ccc(Cl)cc4)CC3)c2F)n1 [Example 76, 1-(4-chlorophenyl)-N-[2-fluoro-3-(4-methyl-6-oxo-1,6-dihydropyrimidin-2-yl)-4-(trifluoromethyl)benzyl]piperidine-4-carboxamide]	7.51
Cc1nc(-c2c(C(F)(F)F)ccc(CNC(=O)C3CCN(c4ccc(Cl)cc4)CC3)c2F)[nH]c(=O)c1F [Example 77, 1-(4-chlorophenyl)-N-[2-fluoro-3-(5-fluoro-4-methyl-6-oxo-1,6-dihydropyrimidin-2-yl)-4-(trifluoromethyl)benzyl]piperidine-4-carboxamide]	7.80
CCc1nc(-c2c(C(F)(F)F)ccc(CNC(=O)C3CCN(c4ccc(Cl)cc4)CC3)c2F)[nH]c(=O)c1F [Example 79, 1-(4-chlorophenyl)-N-[3-(4-ethyl-5-fluoro-6-oxo-1,6-dihydropyrimidin-2-yl)-2-fluoro-4-(trifluoromethyl)benzyl]piperidine-4-carboxamide]	7.25
CCc1nc(-c2c(C(F)(F)F)ccc(CNC(=O)C3CCN(c4ccc(OC(F)(F)F)cc4)CC3)c2F)[nH]c(=O)c1F [Example 80, N-[3-(4-ethyl-5-fluoro-6-oxo-1,6-dihydropyrimidin-2-yl)-2-fluoro-4-(trifluoromethyl)benzyl]-1-[4-(trifluoromethoxy)phenyl]piperidine-4-carboxamide]	7.66
O=C(NCc1ccc(C(F)(F)F)c(-c2nc(C(F)(F)F)cc(=O)[nH]2)c1F)C1CCN(c2ccc(Cl)c(F)c2)CC1 [Example 81, 1-(4-chloro-3-fluorophenyl)-N-{2-fluoro-3-[6-oxo-4-(trifluoromethyl)-1,6-dihydropyrimidin-2-yl]-4-(trifluoromethyl)benzyl}piperidine-4-carboxamide]	8.30
O=C(NCc1ccc(C(F)(F)F)c(-c2nc(C(F)(F)F)cc(=O)[nH]2)c1F)C1CCN(c2cc(Cl)cc(Cl)c2)CC1 [Example 82, 1-(3,5-dichlorophenyl)-N-{2-fluoro-3-[6-oxo-4-(trifluoromethyl)-1,6-dihydropyrimidin-2-yl]-4-(trifluoromethyl)benzyl}piperidine-4-carboxamide]	8.09
COc1cc(N2CCC(C(=O)NCc3ccc(C(F)(F)F)c(-c4nc(C(F)(F)F)cc(=O)[nH]4)c3F)CC2)ccc1Cl [Example 83, 1-(4-chloro-3-methoxyphenyl)-N-{2-fluoro-3-[6-oxo-4-(trifluoromethyl)-1,6-dihydropyrimidin-2-yl]-4-(trifluoromethyl)benzyl}piperidine-4-carboxamide]	8.15
O=C(NCc1ccc(C(F)(F)F)c(-c2nc(C(F)F)cc(=O)[nH]2)c1F)C1CCN(c2ccc(Cl)c(Cl)c2)CC1 [Example 84, 1-(3,4-dichlorophenyl)-N-{3-[4-(difluoromethyl)-6-oxo-1,6-dihydropyrimidin-2-yl]-2-fluoro-4-(trifluoromethyl)benzyl}piperidine-4-carboxamide]	8.28
O=C(NCc1ccc(C(F)(F)F)c(-c2nc(C(F)F)cc(=O)[nH]2)c1F)C1CCN(c2ccc(OC(F)(F)F)cc2)CC1 [Example 85, N-{3-[4-(difluoromethyl)-6-oxo-1,6-dihydropyrimidin-2-yl]-2-fluoro-4-(trifluoromethyl)benzyl}-1-[4-(trifluoromethoxy)phenyl]piperidine-4-carboxamide]	9.21
Cc1cc(=O)[nH]c(-c2c(C(F)(F)F)ccc(CNC(=O)C3CCN(c4ccc(Cl)c(Cl)c4)CC3)c2F)n1 [Example 86, 1-(3,4-dichlorophenyl)-N-[2-fluoro-3-(4-methyl-6-oxo-1,6-dihydropyrimidin-2-yl)-4-(trifluoromethyl)benzyl]piperidine-4-carboxamide]	> 9.00
Cc1cc(=O)[nH]c(-c2c(C(F)(F)F)ccc(CNC(=O)C3CCN(c4ccc(OC(F)(F)F)cc4)CC3)c2F)n1 [Example 87, N-[2-fluoro-3-(4-methyl-6-oxo-1,6-dihydropyrimidin-2-yl)-4-(trifluoromethyl)benzyl]-1-[4-(trifluoromethoxy)phenyl]piperidine-4-carboxamide]	7.41
O=C(NCc1ccc(C(F)(F)F)c(-c2nc(C(F)(F)F)cc(=O)[nH]2)c1F)C1CCN(c2ccc(F)c(Cl)c2)CC1 [Example 88, 1-(3-chloro-4-fluorophenyl)-N-{2-fluoro-3-[6-oxo-4-(trifluoromethyl)-1,6-dihydropyrimidin-2-yl]-4-(trifluoromethyl)benzyl}piperidine-4-carboxamide]	> 9.00
O=C(NCc1ccc(C(F)(F)F)c(-c2nc3c(c(=O)[nH]2)CCC3)c1F)C1CCN(c2ccc(Cl)cc2)CC1 [Example 89, 1-(4-chlorophenyl)-N-[2-fluoro-3-(4-oxo-4,5,6,7-tetrahydro-3H-cyclopenta[d]pyrimidin-2-yl)-4-(trifluoromethyl)benzyl]piperidine-4-carboxamide]	> 9.00
CCc1nc(-c2c(C(F)(F)F)ccc(CNC(=O)C3CCN(c4ccc(C#N)cc4Cl)CC3)c2F)[nH]c(=O)c1F [Example 90, 1-(2-chloro-4-cyanophenyl)-N-[3-(4-ethyl-5-fluoro-6-oxo-1,6-dihydropyrimidin-2-yl)-2-fluoro-4-(trifluoromethyl)benzyl]piperidine-4-carboxamide]	8.80
COc1cc(N2CCC(C(=O)NCc3ccc(C(F)(F)F)c(-c4nc(C)cc(=O)[nH]4)c3F)CC2)ccc1Cl [Example 93, 1-(4-chloro-3-methoxyphenyl)-N-[2-fluoro-3-(4-methyl-6-oxo-1,6-dihydropyrimidin-2-yl)-4-(trifluoromethyl)benzyl]piperidine-4-carboxamide]	8.85
Cc1cc(=O)[nH]c(-c2c(C(F)(F)F)ccc(CNC(=O)C3CCN(c4cccc(C(F)(F)F)c4)CC3)c2F)n1 [Example 94, N-[2-fluoro-3-(4-methyl-6-oxo-1,6-dihydropyrimidin-2-yl)-4-(trifluoromethyl)benzyl]-1-[3-(trifluoromethyl)phenyl]piperidine-4-carboxamide]	7.89
Cc1cc(=O)[nH]c(-c2c(C(F)(F)F)ccc(CNC(=O)C3CCN(c4ccc(Cl)c(F)c4)CC3)c2F)n1 [Example 95, 1-(4-chloro-3-fluorophenyl)-N-[2-fluoro-3-(4-methyl-6-oxo-1,6-dihydropyrimidin-2-yl)-4-(trifluoromethyl)benzyl]piperidine-4-carboxamide]	> 9.00
Cc1nc(-c2c(C(F)(F)F)ccc(CNC(=O)C3CCN(c4cccc(C(F)(F)F)c4)CC3)c2F)[nH]c(=O)c1F [Example 97, N-[2-fluoro-3-(5-fluoro-4-methyl-6-oxo-1,6-dihydropyrimidin-2-yl)-4-(trifluoromethyl)benzyl]-1-[3-(trifluoromethyl)phenyl]piperidine-4-carboxamide]	> 9.00
CCc1cc(=O)[nH]c(-c2c(C(F)(F)F)ccc(CNC(=O)C3CCN(c4ccc(Cl)c(OC)c4)CC3)c2F)n1 [Example 98, 1-(4-chloro-3-methoxyphenyl)-N-[3-(4-ethyl-6-oxo-1,6-dihydropyrimidin-2-yl)-2-fluoro-4-(trifluoromethyl)benzyl]piperidine-4-carboxamide]	7.72
O=c1cc(C(F)(F)F)nc(-c2c(C(F)(F)F)ccc(CNC(=O)[C@H]3CC[C@H](OCc4ccccc4Cl)CC3)c2F)[nH]1 [Example 99, trans-4-[(2-chlorobenzyl)oxy]-N-{2-fluoro-3-[6-oxo-4-(trifluoromethyl)-1,6-dihydropyrimidin-2-yl]-4-(trifluoromethyl)benzyl}cyclohexane-1-carboxamide]	> 9.00
O=c1cc(C(F)(F)F)nc(-c2c(C(F)(F)F)ccc(CNC(=O)[C@H]3CC[C@H](OCc4cccc(Cl)c4)CC3)c2F)[nH]1 [Example 100, trans-4-[(3-chlorobenzyl)oxy]-N-{2-fluoro-3-[6-oxo-4-(trifluoromethyl)-1,6-dihydropyrimidin-2-yl]-4-(trifluoromethyl)benzyl}cyclohexane-1-carboxamide]	> 9.00
O=c1cc(C(F)(F)F)nc(-c2c(C(F)(F)F)ccc(CNC(=O)[C@H]3CC[C@H](OCc4ccc(Cl)cc4)CC3)c2F)[nH]1 [Example 101, trans-4-[(4-chlorobenzyl)oxy]-N-{2-fluoro-3-[6-oxo-4-(trifluoromethyl)-1,6-dihydropyrimidin-2-yl]-4-(trifluoromethyl)benzyl}cyclohexane-1-carboxamide]	> 9.00
Cc1nc(-c2c(C(F)(F)F)ccc(CNC(=O)[C@H]3CC[C@H](OCc4ccccc4Cl)CC3)c2F)[nH]c(=O)c1F [Example 102, trans-4-[(2-chlorobenzyl)oxy]-N-[2-fluoro-3-(5-fluoro-4-methyl-6-oxo-1,6-dihydropyrimidin-2-yl)-4-(trifluoromethyl)benzyl]cyclohexane-1-carboxamide]	> 9.00
O=c1cc(C(F)F)nc(-c2c(C(F)(F)F)ccc(CNC(=O)[C@H]3CC[C@H](OCc4ccccc4Cl)CC3)c2F)[nH]1 [Example 103, trans-4-[(2-chlorobenzyl)oxy]-N-{3-[4-(difluoromethyl)-6-oxo-1,6-dihydropyrimidin-2-yl]-2-fluoro-4-(trifluoromethyl)benzyl}cyclohexane-1-carboxamide]	> 9.00
Cc1nc(-c2c(C(F)(F)F)ccc(CNC(=O)[C@H]3CC[C@H](OCc4ccc(Cl)cc4)CC3)c2F)[nH]c(=O)c1F [Example 104, trans-4-[(4-chlorobenzyl)oxy]-N-[2-fluoro-3-(5-fluoro-4-methyl-6-oxo-1,6-dihydropyrimidin-2-yl)-4-(trifluoromethyl)benzyl]cyclohexane-1-carboxamide]	8.92
